# Measurements taken from US20240299292A1, “STABLE SEMI-SOLID CHEWABLE GEL COMPOSITIONS AND METHODS OF MAKING AND USING THEREOF” (Seattle Gummy Company, priority 2021, published 2024).
# Experiments:
# [1] = ITC association constant of cetirizine-β-cyclodextrin complex; format: binding; settings: beta vs alpha and gamma cyclodextrin
# Excerpt: Either the phenyl group or the 4-chlorophenyl group fit inside the ring structure. The inside cavity of cylcodextrins is largely hydrophobic which is favorable for aromatic systems that are also hydrophobic. The formation of the chelate structure is […] favorable due to electrostatic interactions of the pi system of the aromatic moiety with in the hydrophobic cavity and electronic interaction with the hydrogen atoms and […]. It is these electronic interactions between these systems of the cyclodextrin and the pi system that gives the favorable heat of formation.
# [2] = ITC measurements; cited from earlier work
# [3] = ITC measurements; cited from earlier work; remark: listed apart in the source
# [4] = ITC measurements; cited from earlier work; remark: listed apart in the source
smiles,measurement,setting,value
O=C(O)COCCN1CCN(C(c2ccccc2)c2ccc(Cl)cc2)CC1 (stereo not shown) [cetirizine],formation constant of beta cyclodextrin complex relative to alpha and gamma cyclodextrin,[1],nearly four times
same,"association constant, cetirizine-γ-cyclodextrin complex",[2],1200 ± 50 M⁻¹
same,"association constant K(a), cetirizine-α-cyclodextrin complex",[3],1434 ± 60 M⁻¹
same,"association constant K(a), cetirizine-β-cyclodextrin complex",[4],5641 ± 358 M⁻¹
